According to PMC8789663 (The Journal of Biological Chemistry, 2021):
One block for each compound: values may come before it.

Key:
rat islets [1] = test: Perifusion assay of rat islet GSIS, step-wise glucose increase 2.8 to 16.7 mM; conditions: for potentiation of first and second phase GSIS by cyclic nucleotide analog prodrug: 10 μM, representative of six independent experiments; for block of potentiation of GSIS by GLP-1, PKC inhibitors: 10 µM; for block of potentiation of GSIS by GLP-1 (1 nM), PLC inhibitor or negative control: 1 µM, pretreatment for 40 min; for effect of PLC inhibitor or negative control alone on GSIS: 1 µM in Fig. S2
rat islets [2] = test: Perifusion assay of rat islet GSIS, linear glucose gradient; type: cell-based, Sprague–Dawley rat
β-cell GSIS = conditions: cited from earlier work
Source text: (§1) A selective effect is possible based on our previous report that the cAMP antagonist prodrug Rp-8-Br-cAMPS-pAB abolished first-phase but not second-phase GSIS in response to glucose alone ([25]).

Epac = conditions: read-out: IC50, block of GLP-1-stimulated cAMP (H188); INS-1 832/13 cells transduced with H188, GLP-1 stimulated
islets = conditions: raising levels of cAMP; cited from earlier work
Source text: Identifying the mechanism for this switch from cAMP-independent to cAMP-dependent insulin secretion is of great interest. Shibasaki et al. ([33]) reported a cAMP-regulated mechanism of insulin secretion that results from “restless newcomer” exocytosis in which Epac2 activation mobilizes cytoplasmic secretory granules so that they quickly transit to the plasma membrane for release without pausing in a “docked” state. When islets are stimulated with glucose alone, this newcomer exocytosis is more prominent during first-phase as compared with second-phase GSIS. Raising levels of cAMP by treatment ...

mouse islets = conditions: cited from earlier work
GcgR = conditions: cited from earlier work
GLP-1R = conditions: cited from earlier work
PKA [3] = system: T1, PKA; test: Live-cell FRET assay (435 nm excitation, 485/535 emission ratio, pH 7.4) with PKA substrate reporter AKAR3; inhibition of PKA activity stimulated by GLP-1.; type: cell-based, INS-1 832/13 cells transduced with AKAR3; conditions: n = 12
T1 construct: endogenous PKA, read out indirectly with FRET reporter AKAR3 (PKA substrate)

[4] = biological target: endogenous rat GLP-1 receptor (rat (endogenous in INS-1 832/13 cells and rat islets)) (UniProt P32301)
Sequence of endogenous rat GLP-1 receptor (rat (endogenous in INS-1 832/13 cells and rat islets)) (P32301 22-463): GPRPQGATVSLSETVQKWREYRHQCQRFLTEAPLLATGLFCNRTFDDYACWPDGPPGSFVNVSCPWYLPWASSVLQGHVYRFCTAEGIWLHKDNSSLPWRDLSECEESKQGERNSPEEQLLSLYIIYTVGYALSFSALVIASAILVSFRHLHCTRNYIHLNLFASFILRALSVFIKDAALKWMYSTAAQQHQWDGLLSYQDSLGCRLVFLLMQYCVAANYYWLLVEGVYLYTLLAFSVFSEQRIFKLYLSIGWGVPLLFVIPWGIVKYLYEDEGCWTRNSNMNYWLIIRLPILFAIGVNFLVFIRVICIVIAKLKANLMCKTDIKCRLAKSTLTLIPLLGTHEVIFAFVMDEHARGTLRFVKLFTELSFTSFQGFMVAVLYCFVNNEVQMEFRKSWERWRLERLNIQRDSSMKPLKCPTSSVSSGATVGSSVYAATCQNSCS

PKA [5] = conditions: unconjugated Rp-8-Br-cAMPS; cited from earlier work
Source text: as §1

Epac1 and Epac2 = conditions: unconjugated Rp-8-Br-cAMPS; cited from earlier work
Source text: as §1

rat perfused pancreas = conditions: ref 11 (Moens et al.); cited from earlier work
[6] = Rp-8-Br-cAMPS-pAB 10 μM, five independent experiments

Compound: CC(=O)OCOP1(=O)OCC2OC(n3cnc4c(NC(=O)c5ccccc5)ncnc43)C(O)C2O1 (centres unmarked) [6-Bnz-cAMP-AM]
potentiation of first and second phase GSIS by cyclic nucleotide analog prodrug (rat islets [1]): potentiated

Compound: CC(=O)Oc1ccc(CSP2(=O)OC[C@H]3O[C@@H](n4c(Br)nc5c(N)ncnc54)[C@H](O)[C@@H]3O2)cc1 (some centres unmarked) [Rp-8-Br-cAMPS-pAB]
effect on glucagon-potentiated GSIS in the gradient assay (rat islets [2]; Rp-8-Br-cAMPS-pAB 10 μM vs glucagon 10 nM): blocked | effect on GSIS stimulated by a glucose gradient alone (rat islets [2]; Rp-8-Br-cAMPS-pAB 10 μM, three independent experiments): failed to inhibit | effect on first-phase GSIS in response to glucose alone (β-cell GSIS): abolished | effect on second-phase GSIS in response to glucose alone (β-cell GSIS): not | IC50 (Epac): 1.4 µM | antagonist action versus 5 nM GLP-1 in comparison with 1 nM GLP-1 (rat islets [1]; Rp-8-Br-cAMPS-pAB 10 μM): weaker | block of potentiation of GSIS by glucagon (rat islets [1]; Rp-8-Br-cAMPS-pAB 10 μM vs 10 nM glucagon, three independent experiments): blocked | block of potentiation of first and second phase GSIS by GLP-1 (rat islets [1]; Rp-8-Br-cAMPS-pAB 10 μM vs GLP-1 5, 1, and 0.1 nM): blocked | effect on second-phase GSIS in the presence of GLP-1 (rat islets [1]; Rp-8-Br-cAMPS-pAB 10 μM, GLP-1 1 nM): greatly reduced the amplitude of second-phase GSIS | effect on first-phase GSIS in response to glucose alone (rat islets [1]; [6]): blocked first-phase GSIS | effect on second-phase GSIS in response to glucose alone (rat islets [1]; [6]): little ability to reduce second-phase GSIS

Compound: C=C[C@@]1(C)CC(=O)[C@]2(O)[C@@]3(C)[C@@H](O)CCC(C)(C)[C@@H]3[C@H](O)[C@H](OC(C)=O)[C@@]2(C)O1 [forskolin]
newcomer exocytosis during first-phase (islets): potentiates | newcomer exocytosis during second-phase (islets): greatly increasing

Compound: COc1ccc2cc(-c3cc(-c4cc(Cl)cc(Cl)c4)nn3[C@@H](C)c3ccc(C(=O)NCCC(=O)O)cc3)ccc2c1 [MK0893]
glucagon-stimulated insulin secretion from mouse islets (mouse islets): inhibit | glucagon action at the GcgR (GcgR): antagonizes | action at the GLP-1R (GLP-1R): antagonizes

Compound: CN(C)C[C@@H]1CCn2cc(c3ccccc32)C2=C(C(=O)NC2=O)c2cn(c3ccccc23)CCO1 [LY 333531]
block of potentiation of GSIS by GLP-1, PKC inhibitors (rat islets [1]): failed to block

Compound: COc1ccc2c(c1)CC[C@@H]1[C@@H]2CC[C@]2(C)[C@@H](NCCCCCCN3C(=O)CCC3=O)CC[C@@H]12 [U73343]
block of potentiation of GSIS by GLP-1 (1 nM), PLC inhibitor or negative control (rat islets [1]; GLP-1 1 nM): failed to block | effect of PLC inhibitor or negative control alone on GSIS (rat islets [1]): not reproduced

Compound: CC(=O)Oc1ccc(CSP2(=O)OC[C@H]3O[C@@H](n4c(Br)nc5c(N)ncnc54)[C@H](O)[C@@H]3O2)cc1 (some centres unmarked) [Rp-8-Br-cAMPS-pAB, Rp-8-Br-cAMPS para-acetoxybenzyl (pAB) ester; membrane-permeable prodrug bioactivated by cytosolic esterases to Rp-8-Br-cAMPS]
IC50 (PKA [3]): 2.8 µM

PKA activity (AKAR3 FRET reporter) in INS-1 832/13 cells [4]: 88 pM | rise of cAMP (H188 FRET reporter) in INS-1 832/13 cells [4]: 1.9 nM
Compound: GLP-1[7-36]amide (ligand)

Compound: Nc1ncnc2c1nc(Br)n2C1OC2COP(O)(=S)OC2C1O (centres unmarked) [Rp-8-Br-cAMPS]
inhibition of stimulatory effects of endogenous cAMP at PKA (PKA [5]): competitively inhibits | inhibition of stimulatory effects of endogenous cAMP at Epac1 and Epac2 (Epac1 and Epac2): competitively inhibits

Compound: COc1ccc2c(c1)CC[C@@H]1[C@@H]2CC[C@]2(C)[C@@H](NCCCCCCN3C(=O)C=CC3=O)CC[C@@H]12 [U73122]
block of potentiation of GSIS by GLP-1 (1 nM), PLC inhibitor or negative control (rat islets [1]; GLP-1 1 nM): failed to block | effect of PLC inhibitor or negative control alone on GSIS (rat islets [1]): potentiated GSIS

Compound: Cn1cc(C2=C(c3cn(CCCSC(=N)N)c4ccccc34)C(=O)NC2=O)c2ccccc21 [Ro 31-8220]
block of potentiation of GSIS by GLP-1, PKC inhibitors (rat islets [1]): failed to block

Compound: des-His^1-Glu^9-glucagon
effect on glucagon-potentiated GSIS in the gradient assay (rat islets [2]; des-His1-Glu9-glucagon 3 µM vs glucagon 10 nM, single experiment): not inhibited | effect on GSIS stimulated by a glucose gradient alone (rat islets [2]; des-His1-Glu9-glucagon 3 µM, single experiment): failed to inhibit | insulin secretion in response to glucose alone, perfused rat pancreas (rat perfused pancreas): not reduced

Compound: CO[C@@H]1[C@@H]2OP(=O)(OCOC(C)=O)OC[C@H]2O[C@H]1n1c(Sc2ccc(Cl)cc2)nc2c(N)ncnc21 (some centres unmarked) [8-pCPT-2′-O-Me-cAMP-AM]
potentiation of first and second phase GSIS by cyclic nucleotide analog prodrug (rat islets [1]): potentiated
